Data set [1] is described as follows: Inhibition of human recombinant 1R N-terminal His-tagged (919 to 1343 residues) expressed in baculovirus infected Sf21 measured after 20 mins by western blot analysis.
A further data set relates to MV4-11. Description: Antitumor activity against human MV4-11 cells xenografted in athymic nu/nu mouse model assessed as tumor growth inhibition at 50 mg/kg administered a day measured after 14 days relative to control. The data set is classed as functional. As to conditions: MV4-11, 336 h, time 14 day, read-out: TGI.
Data set [2] is described as follows: Inhibition of 1R (unknown origin). The arrangement: species or system Homo sapiens.
The target of data set [3] is Epidermal growth factor receptor (Homo sapiens, UniProt P00533, C797S/T790M). Description: Inhibition of EGFR T790M/C797S mutant (unknown origin).
The target in data set [4] is Epidermal growth factor receptor (Homo sapiens, UniProt P00533). Description: Inhibition of wild type EGFR (unknown origin).
Sequence of Epidermal growth factor receptor (Homo sapiens, UniProt P00533) (P00533 whole entry): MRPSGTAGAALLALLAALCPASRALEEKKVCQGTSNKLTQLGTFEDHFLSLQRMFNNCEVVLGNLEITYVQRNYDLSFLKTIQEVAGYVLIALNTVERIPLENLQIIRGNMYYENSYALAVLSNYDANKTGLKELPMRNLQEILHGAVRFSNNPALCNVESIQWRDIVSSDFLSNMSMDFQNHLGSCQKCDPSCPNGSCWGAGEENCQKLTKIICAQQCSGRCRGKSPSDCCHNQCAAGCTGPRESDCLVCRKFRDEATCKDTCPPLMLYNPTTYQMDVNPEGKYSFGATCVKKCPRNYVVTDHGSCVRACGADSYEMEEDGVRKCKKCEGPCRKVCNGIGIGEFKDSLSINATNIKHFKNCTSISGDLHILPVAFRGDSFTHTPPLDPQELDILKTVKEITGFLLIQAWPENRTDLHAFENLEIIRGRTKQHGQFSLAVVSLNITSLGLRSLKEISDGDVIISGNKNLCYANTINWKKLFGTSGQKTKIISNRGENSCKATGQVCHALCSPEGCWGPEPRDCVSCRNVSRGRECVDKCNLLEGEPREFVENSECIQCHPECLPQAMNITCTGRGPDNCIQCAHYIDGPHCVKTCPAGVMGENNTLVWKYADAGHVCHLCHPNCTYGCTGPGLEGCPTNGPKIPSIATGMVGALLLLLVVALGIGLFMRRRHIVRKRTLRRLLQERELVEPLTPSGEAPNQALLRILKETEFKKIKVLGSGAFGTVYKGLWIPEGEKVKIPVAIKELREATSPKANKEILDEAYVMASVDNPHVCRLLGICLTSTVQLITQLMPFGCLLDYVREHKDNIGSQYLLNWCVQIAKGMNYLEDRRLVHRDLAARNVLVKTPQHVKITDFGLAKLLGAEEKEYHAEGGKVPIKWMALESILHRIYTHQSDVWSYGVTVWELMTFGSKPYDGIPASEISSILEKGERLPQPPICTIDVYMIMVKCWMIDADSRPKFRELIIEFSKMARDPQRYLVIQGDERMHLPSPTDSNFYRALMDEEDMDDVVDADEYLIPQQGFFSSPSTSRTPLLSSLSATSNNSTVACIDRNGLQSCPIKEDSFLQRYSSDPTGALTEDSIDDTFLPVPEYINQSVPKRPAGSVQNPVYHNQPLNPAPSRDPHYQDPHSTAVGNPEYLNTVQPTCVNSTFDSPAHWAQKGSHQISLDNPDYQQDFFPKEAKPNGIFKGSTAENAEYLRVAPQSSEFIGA
Data set [5] in a line: Half life in CD1 mouse at 3 mg/kg, ip by LC-MS/MS analysis. Particulars: in vivo. The data set is classed as ADME, organism-based.
Data set [6] relates to NCI-H1581. Description: animal or person. Particulars: Mus musculus, BALB/c, NCI-H1581, 480 h, read-out: TGI.
Description: Antitumor activity against human NCI-H1581 cells xenografted in BALB/c mouse assessed as tumor growth inhibition at 10 mg/kg, ip administered once daily for 20 days measured after 32 days by LC_MS/MS analysis relative to control
Data set [7] is described as follows: AUC (0 to t) in CD1 mouse at 3 mg/kg, ip by LC-MS/MS analysis. The data set is classed as ADME, organism-based. The arrangement: dose 3 mg/kg, route ip. As to conditions: in vivo.
Data set [8] in a line: Half life in CD1 mouse at 1 mg/kg, iv by LC-MS/MS analysis. It is filed as ADME, organism-based. As to conditions: in vivo.
A short description of data set [9]: AUC (0 to t) in CD1 mouse at 1 mg/kg, iv by LC-MS/MS analysis. It is filed as ADME, organism-based. The arrangement: dose 1 mg/kg, route iv. As to conditions: in vivo.
A further data set has as its system BaF3. Description: cells. As to conditions: Mus musculus, BaF3, 72 h.
Data set [10] relates to NCI-H1581. Description: animal or person. Particulars: Mus musculus, BALB/c, NCI-H1581, 480 h, read-out: TGI. This is another data set of the same source.
Description: Antitumor activity against human NCI-H1581 cells xenografted in BALB/c mouse assessed as tumor growth inhibition at 50 mg/kg, ip administered once daily for 20 days measured after 32 days by LC_MS/MS analysis relative to control
Data set [11] has as its target Cytoplasmic tyrosine-protein kinase BMX (Homo sapiens, UniProt P51813). Description: Inhibition of BMX (unknown origin).
Data set [12] concerns the target Vascular endothelial growth factor receptor 2 (Homo sapiens, UniProt P35968). Description: Inhibition of VEGFR2 (unknown origin).
The target in data set [13] is T1, Fibroblast growth factor receptor 3 (Homo sapiens, UniProt P22607). Description: Inhibition of FGFR3 (unknown origin).
T1 sequence (P22607 whole entry): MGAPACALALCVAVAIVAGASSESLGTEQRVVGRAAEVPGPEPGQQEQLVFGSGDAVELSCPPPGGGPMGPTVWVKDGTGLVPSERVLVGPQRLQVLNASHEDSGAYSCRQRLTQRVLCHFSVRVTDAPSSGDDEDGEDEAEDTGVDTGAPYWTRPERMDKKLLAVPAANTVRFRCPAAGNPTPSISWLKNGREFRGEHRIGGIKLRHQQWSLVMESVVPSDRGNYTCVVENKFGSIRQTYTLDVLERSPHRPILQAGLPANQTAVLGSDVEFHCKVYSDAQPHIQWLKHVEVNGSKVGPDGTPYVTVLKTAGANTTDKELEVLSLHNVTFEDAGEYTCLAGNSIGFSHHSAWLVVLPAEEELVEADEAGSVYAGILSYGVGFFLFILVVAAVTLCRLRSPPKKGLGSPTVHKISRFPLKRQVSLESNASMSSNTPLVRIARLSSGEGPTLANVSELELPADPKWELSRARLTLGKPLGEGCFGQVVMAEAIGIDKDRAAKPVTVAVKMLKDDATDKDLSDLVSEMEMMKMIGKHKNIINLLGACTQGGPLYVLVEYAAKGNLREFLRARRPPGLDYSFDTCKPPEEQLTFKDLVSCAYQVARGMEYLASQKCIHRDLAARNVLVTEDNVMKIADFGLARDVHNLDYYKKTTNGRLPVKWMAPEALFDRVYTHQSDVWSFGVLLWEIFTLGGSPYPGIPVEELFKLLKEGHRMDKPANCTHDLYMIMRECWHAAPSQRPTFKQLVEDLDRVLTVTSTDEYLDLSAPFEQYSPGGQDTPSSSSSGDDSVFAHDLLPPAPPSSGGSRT
For data set [14], the target named is Epidermal growth factor receptor (Homo sapiens, UniProt P00533, L858R). Description: Inhibition of EGFR L858R mutant (unknown origin).
The target of data set [15] is Epidermal growth factor receptor (Homo sapiens, UniProt P00533, L858R/T790M). Description: Inhibition of EGFR L858R/T790M mutant (unknown origin).
Sequence of Epidermal growth factor receptor (Homo sapiens, UniProt P00533, L858R/T790M) (P00533 25-1210 T790M/L858R limits assumed): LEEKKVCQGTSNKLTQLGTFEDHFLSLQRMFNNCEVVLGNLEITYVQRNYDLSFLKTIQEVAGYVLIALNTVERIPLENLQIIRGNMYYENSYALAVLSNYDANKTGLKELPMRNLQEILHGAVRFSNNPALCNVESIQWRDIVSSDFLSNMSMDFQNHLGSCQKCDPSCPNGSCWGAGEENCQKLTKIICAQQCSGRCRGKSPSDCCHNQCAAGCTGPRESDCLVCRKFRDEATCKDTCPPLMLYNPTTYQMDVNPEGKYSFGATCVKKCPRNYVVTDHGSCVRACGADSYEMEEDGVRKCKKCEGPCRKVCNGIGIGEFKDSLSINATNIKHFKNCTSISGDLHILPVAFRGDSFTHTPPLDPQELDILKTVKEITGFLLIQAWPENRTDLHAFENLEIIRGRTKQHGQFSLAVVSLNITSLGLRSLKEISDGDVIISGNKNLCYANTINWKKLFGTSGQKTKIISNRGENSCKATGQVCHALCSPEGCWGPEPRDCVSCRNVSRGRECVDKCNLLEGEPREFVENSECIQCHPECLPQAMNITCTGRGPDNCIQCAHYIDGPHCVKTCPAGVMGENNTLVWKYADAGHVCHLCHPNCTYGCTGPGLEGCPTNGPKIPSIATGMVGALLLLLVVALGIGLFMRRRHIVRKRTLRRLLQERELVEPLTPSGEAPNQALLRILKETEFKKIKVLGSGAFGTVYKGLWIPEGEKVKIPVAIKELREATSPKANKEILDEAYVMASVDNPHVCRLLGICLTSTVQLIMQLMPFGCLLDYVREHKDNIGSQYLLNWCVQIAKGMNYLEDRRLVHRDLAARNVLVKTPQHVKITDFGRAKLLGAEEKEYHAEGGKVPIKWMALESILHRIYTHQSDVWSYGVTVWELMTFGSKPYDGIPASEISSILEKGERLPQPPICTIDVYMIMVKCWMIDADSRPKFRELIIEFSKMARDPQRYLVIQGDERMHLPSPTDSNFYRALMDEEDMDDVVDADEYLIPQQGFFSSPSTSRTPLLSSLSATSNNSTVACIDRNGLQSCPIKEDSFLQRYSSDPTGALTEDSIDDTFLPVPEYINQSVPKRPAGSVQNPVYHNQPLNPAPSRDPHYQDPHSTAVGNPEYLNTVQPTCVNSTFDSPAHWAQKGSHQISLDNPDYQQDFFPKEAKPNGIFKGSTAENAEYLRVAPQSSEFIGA
The nature of another data set: animal or person. It is filed as functional. As to conditions: Homo sapiens, HCC, 336 h, time 14 day, read-out: TGI.
For data set [16], the system named is NCI-H1581. Description: Antitumor activity against human NCI-H1581 cells xenografted in athymic nu/nu mouse model assessed as tumor growth inhibition at 25 mg/kg measured after 14 days relative to control. As to conditions: NCI-H1581, 336 h, read-out: TGI.
The target in data set [17] is T1, Fibroblast growth factor receptor 3. Description: Inhibition of human recombinant FGFR3.
The target of data set [18] is Fibroblast growth factor receptor 2 (Homo sapiens, UniProt P21802). Description: Inhibition of human recombinant FGFR2.
Sequence of Fibroblast growth factor receptor 2 (P21802 whole entry): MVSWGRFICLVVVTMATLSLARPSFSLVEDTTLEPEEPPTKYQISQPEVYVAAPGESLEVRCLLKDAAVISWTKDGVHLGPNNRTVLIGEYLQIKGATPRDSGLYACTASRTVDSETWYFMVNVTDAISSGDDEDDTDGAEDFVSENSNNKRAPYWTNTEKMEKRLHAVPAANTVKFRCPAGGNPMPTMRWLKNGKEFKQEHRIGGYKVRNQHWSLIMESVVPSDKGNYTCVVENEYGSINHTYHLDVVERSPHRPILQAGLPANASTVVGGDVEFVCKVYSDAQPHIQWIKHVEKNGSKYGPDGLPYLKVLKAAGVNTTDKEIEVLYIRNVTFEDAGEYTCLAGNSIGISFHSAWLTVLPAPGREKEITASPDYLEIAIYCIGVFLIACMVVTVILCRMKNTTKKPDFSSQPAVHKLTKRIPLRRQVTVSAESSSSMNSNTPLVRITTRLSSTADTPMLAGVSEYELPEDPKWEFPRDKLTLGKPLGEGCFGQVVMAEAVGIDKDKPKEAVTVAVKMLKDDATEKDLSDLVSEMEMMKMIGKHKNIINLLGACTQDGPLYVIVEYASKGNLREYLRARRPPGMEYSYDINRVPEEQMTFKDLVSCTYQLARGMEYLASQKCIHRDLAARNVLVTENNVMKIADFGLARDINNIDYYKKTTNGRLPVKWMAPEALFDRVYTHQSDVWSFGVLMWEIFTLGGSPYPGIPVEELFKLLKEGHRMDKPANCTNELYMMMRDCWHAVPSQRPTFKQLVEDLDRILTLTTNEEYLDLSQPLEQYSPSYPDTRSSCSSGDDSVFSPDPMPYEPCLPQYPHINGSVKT
In data set [19] the target is Fibroblast growth factor receptor 4 (Homo sapiens, UniProt P22455). Description: Inhibition of human recombinant FGFR4.
Sequence of Fibroblast growth factor receptor 4 (P22455 whole entry): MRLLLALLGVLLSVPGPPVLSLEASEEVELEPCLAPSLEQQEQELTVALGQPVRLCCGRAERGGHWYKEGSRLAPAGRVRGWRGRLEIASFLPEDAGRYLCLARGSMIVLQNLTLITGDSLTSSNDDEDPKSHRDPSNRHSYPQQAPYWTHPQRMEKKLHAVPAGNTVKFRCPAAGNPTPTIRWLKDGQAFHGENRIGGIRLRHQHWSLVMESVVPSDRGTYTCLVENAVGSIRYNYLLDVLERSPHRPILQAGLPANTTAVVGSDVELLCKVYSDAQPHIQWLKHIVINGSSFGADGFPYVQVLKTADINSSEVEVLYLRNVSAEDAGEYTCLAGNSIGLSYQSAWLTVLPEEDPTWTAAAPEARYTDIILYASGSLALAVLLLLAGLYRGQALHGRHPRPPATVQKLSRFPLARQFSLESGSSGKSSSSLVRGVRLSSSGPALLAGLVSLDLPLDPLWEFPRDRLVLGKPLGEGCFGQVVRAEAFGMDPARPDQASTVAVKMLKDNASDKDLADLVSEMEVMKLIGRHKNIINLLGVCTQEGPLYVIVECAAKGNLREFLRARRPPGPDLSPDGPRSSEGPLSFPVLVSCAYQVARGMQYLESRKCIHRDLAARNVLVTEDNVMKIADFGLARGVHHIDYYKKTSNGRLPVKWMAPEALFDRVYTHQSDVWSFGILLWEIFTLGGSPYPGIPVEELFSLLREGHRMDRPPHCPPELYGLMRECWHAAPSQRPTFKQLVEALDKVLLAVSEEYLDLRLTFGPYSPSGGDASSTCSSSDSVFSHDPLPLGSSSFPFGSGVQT
The target of data set [20] is Fibroblast growth factor receptor 1 (Homo sapiens, UniProt P11362). Description: Inhibition of human recombinant FGFR1.
The target in data set [21] is T2, Phosphatidylinositol 4,5-bisphosphate 3-kinase catalytic subunit delta isoform (Homo sapiens, UniProt O00329).
T2 sequence (O00329 whole entry): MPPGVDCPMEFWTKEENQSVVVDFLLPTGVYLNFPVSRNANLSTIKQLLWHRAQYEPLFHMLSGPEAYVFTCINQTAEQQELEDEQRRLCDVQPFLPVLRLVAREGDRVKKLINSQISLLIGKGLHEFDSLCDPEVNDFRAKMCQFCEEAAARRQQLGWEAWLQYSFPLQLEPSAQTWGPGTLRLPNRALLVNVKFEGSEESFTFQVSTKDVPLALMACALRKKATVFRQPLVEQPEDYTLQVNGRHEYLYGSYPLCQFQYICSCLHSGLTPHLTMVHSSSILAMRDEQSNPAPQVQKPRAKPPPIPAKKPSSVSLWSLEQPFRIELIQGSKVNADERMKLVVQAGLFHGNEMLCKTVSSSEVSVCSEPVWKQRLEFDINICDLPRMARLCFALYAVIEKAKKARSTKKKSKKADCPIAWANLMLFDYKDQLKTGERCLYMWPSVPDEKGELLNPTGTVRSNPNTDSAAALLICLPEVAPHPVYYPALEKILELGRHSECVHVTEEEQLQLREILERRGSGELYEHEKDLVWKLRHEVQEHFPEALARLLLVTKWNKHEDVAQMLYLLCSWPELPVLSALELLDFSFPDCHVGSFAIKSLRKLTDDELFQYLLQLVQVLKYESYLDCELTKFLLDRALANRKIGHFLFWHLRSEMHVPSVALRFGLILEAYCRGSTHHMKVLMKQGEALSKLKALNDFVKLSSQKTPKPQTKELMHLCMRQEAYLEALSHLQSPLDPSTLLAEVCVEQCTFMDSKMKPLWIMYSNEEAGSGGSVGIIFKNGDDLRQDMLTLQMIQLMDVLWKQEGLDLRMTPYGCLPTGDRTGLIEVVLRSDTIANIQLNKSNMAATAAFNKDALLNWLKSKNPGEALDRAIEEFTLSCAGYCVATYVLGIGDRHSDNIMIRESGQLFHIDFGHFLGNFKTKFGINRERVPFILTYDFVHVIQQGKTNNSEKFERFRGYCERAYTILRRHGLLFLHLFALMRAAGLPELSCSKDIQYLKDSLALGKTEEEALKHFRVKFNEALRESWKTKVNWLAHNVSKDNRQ
Description: Inhibition of PI3Kdelta (unknown origin) at 1 uM.

Data set [22] concerns the target Proto-oncogene tyrosine-protein kinase receptor Ret (Homo sapiens, UniProt P07949). Description: Inhibition of recombinant GST-tagged RET (unknown origin) using EAIYAAPFKKK as substrate in the presence of ATP of 100 uM by western blot analysis. On the technique in general: A western blot detects proteins with antibodies after separation by electrophoresis.

Each structure is given as a SMILES string. A value given as a limit tells only on which side of the number the result lay.

Description for BaF3: Antiproliferative activity against mouse BaF3/TEL-FGFR1 cells measured after 72 hrs by CCK8 assay

For orientation: IC50 means the concentration at which inhibition is half-maximal. With `Nc1ncnc2c1c(-c1cccc(OCc3ccccc3)c1)cn2[C@H]1C[C@@H](CN2CCC2)C1`, the 50% inhibitory concentration (IC50) in data set [1] amounted to 2300 nM.

Regarding `CN(C)CC(=O)N1CCC[C@@H](n2nc(-c3ccc(Oc4ccccc4)cc3)c3c(N)ncnc32)C1`, the inhibition in vivo at 50 mg/kg with MV4-11 worked out at 88%.

Consider `Nc1ncnc2c1c(-c1cccc(OCc3ccccc3)c1)cn2[C@H]1C[C@H](CN2CCCC2)C1`, for which the IC50 in data set [2] came out at 2800 nM.

With `C=CC(=O)N1CCC[C@@H](n2nc(-c3cn(C)c4ccccc34)c3c(N)ncnc32)C1`, the figures for the half-inhibitory concentration (IC50) in [3] and in [4] were 1.9 nM and 58 nM, respectively.

As a reminder, the half-life is the time in which the quantity being followed falls by half. High values mean slow loss, low ones fast loss. Turning to `Cc1ccc2oc(-c3c4c(N)n[nH]c(=O)c4nn3-c3ccc(NC(=O)/C=C/CN(C)C)cc3)c(C)c2c1`, the results for the half-life in data set [5] and in data set [8] were 3.7 h and 1.39 h, respectively. The inhibition in vivo at 10 mg/kg with NCI-H1581 [6] turned out to be 74.4%. For the same molecule, the AUCt in data set [7] is 704 ng·h/mL; in [9], 281 ng·h/mL. The IC50 in the data set with BaF3 was < 0.3 nM. Also, the inhibition in vivo at 50 mg/kg in the data set with NCI-H1581 [10] was 91.6%.

The molecule `N#CN1CCC[C@@H](n2nc(-c3ccc(Oc4ccc(F)cc4F)cc3)c(C(N)=O)c2N)C1` returned an IC50 in data set [11] of 0.9 nM.

As for `C#CCO[C@@H]1[C@H](C)[C@@H](COC(=O)c2ccc(S(=O)(=O)F)cc2)O[C@H]1n1nc(-c2ccc(C)cc2)c2c(N)ncnc21`, the concentration for half-maximal inhibition (IC50) turned out to be 475 nM in [12] and 1.6 nM in data set [13].

For the molecule `N#C/C(=C/C(=O)N1CCC[C@@H](n2nc(-c3cnc4[nH]ccc4c3)c3c(N)ncnc32)C1)C1CC1`, the figures for the IC50 in [14], in data set [15] and in data set [4] were 2 nM, 2.7 nM and 13 nM, respectively.

With `C=CC(=O)N1CC[C@H](c2nc(-c3cc4cc(Br)cc(OC)c4s3)c3c(N)nccn23)C1`, the inhibition in vivo at 50 mg/kg in “animal or person” is 97.8%. Moreover, in the data set on NCI-H1581 [16], the inhibition in vivo at 25 mg/kg was 84.6%. In addition, the IC50 is < 0.3 nM in [17], 1.1 nM in [18], 0.5 nM in data set [19] and < 0.3 nM in data set [20].

In data set [21], `Nc1ncnc2c1c(-c1cc(O)c(Br)c(F)c1)nn2C1CCc2ccccc2C1` (stereo unspecified) showed an IC50 of 0.27 nM.

Turning to `CC(C)(C)n1nc(-c2ccc(NC(=O)c3cc(C(F)(F)F)ccc3F)cc2)c2c(N)ncnc21`, the IC50 in data set [22] came to 4 nM.

The values above are taken from ChEMBL document CHEMBL5241118, “4-Aminopyrazolopyrimidine scaffold and its deformation in the design of tyrosine and serine/threonine kinase inhibitors in medicinal chemistry” (RSC Med Chem, 2022).
